Assay results taken from patent US20170189496A1, “USE OF PHOSPHORYLATION PATHWAY-RELATED FACTOR IN REGULATING FUNCTION OF REGULATORY T CELL” (Institut Pasteur of Shanghai, Chinese Academy of Sciences, priority 2012, published 2017).
Entries after “also recorded” stand apart in the source; their conditions may differ.

Tests used:
Format in all cases: cell-based
[1] = test system: induced Treg cells from human CD4+ CD45RA+ natural T cells; test: FOXP3 and CTLA4 expression in induced Treg (flow cytometry); settings: 50 uM, 48 h, vs DMSO control group
Procedure: Human CD4+ CD45RA+ natural T cells (i.e., natural T cells rather than Treg cells) were sorted by BD FACS Aria II flow sorter and expanded by Bead-CD3/CD28 (2:1), IL-2 (100 U/ml), and TGF-β (1 ng/ml, 3 ng/ml, and 5 ng/ml) for 5 days. DMSO or kaempferol (50 uM) was added and treated for 48 h. Flow cytometry analysis was performed after PE-FOXP3 (FIG. 14B) and APC-CTLA4 (FIG. 14A) antibody staining.
Human CD4+ CD45RA+ natural T cells (i.e., natural T cells rather than Treg cells) were sorted by BD FACS Aria II flow sorter and expanded using Bead-CD3/CD28 (2:1). IL-2 (100 U/ml), and TGF-β (1 ng/ml, 3 ng/ml, and 5 ng/ml) for 5 days to obtain the induced Treg cells. DMSO or kaempferol (50 uM) was added and treated for 48 h.

PIM3 = biological target: T1, PIM3 (Homo sapiens, UniProt Q86V86); test: FOXP3 phosphorylation induced by PIM3 in HEK293T cells (immunoblot); settings: Myc-FOXP3 + FLAG-PIM3, 50 μM, 12 h
T1 construct: expressed in transfected cells; host or cells: HEK293T
Procedure: (§1) Myc-FOXP3, FLAG-PIM1, FLAG-PIM2, and FLAG-PIM3 were co-transfected into HEK293T cells. 36 h later, cells were treated with 50 μM of kaempferol for 12 h. Cells were collected 48 h after cell transfection.
(§2) Protein samples were subjected to SDS-PAGE, and then transferred to nitrocellulose membrane, which was then sealed in TBST containing 5% nonfat dry milk or 3% bovine serum albumin for 1 h. Primary antibody was added and incubated for 1 h and then HRP-conjugated secondary antibody was added and incubated for 1 h, and results shown by exposure with ECL substrates.
(§3) HEK293T cells were co-transfected, respectively, with Myc-FOXP3+FLAG-PIM1, Myc-FOXP3+FLAG-PIM2, and Myc-FOXP3+FLAG-PIM3. 36 h later, cells were treated with 50 μM kaempferol for 12 h. After 48 h. cells were collected and lysed with cell lysis buffer.

[2] = test system: Jurkat cells stably expressing HA-FOXP3; test: FOXP3 protein degradation induced by PMA/LPS in Jurkat cells stably expressing HA-FOXP3 (immunoblot); settings: PMA 25 ng/ml + LPS 1 ng/ml, 24 h; kaempferol 50 μM, PIM1 inhibitor 100 nM, PI3K inhibitor 10 μg/ml; DMSO control
Procedure: HA-FOXP3-Jurkat stable expression cells were treated with PMA (25 ng/ml) and LPS (1 ng/ml). 50 μM kaempferol, 100 nM PIM1 inhibitors (specifically of 4-[3-(4-chlorophenyl)-2,1-benzisoxazol-5-yl]-2-pyrimidinamine), and 10 μg/ml PI3K inhibitor (LY294002) were added, and DMSO as a control. Cells were collected 24 h later. The levels of FOXP3 and GAPDH were detected directly by immunoblot.
Human embryonic kidney cell line HEK293 was co-transfected with FUGW-HA-FOXP3, del 8.9 and VSV-G. Cell culture supernatants were collected 48 h and 72 h after transfection. Viruses were purified by ultracentrifugation and used to infect Jurkat E6.1 to ultimately obtain Jurkat cell lines stably expressing HA-FOXP3.
as §2
Jurkat cells stably expressing HA-FOXP3 were treated with PMA (25 ng/ml) and LPS (1 ng/ml). Each sample was added 50 μM kaempferol, 100 nM PIM1 inhibitor (i.e., 4-[3-(4-chlorophenyl)-2,1-benzisoxazol-5-yl]-2-pyrimidinamine), and 10 μg/ml PI3K inhibitor (LY294002). DMSO serves as a control. Cells were collected after 24 h.

PIM1 [3] = biological target: T2, PIM1 (Homo sapiens, UniProt P11309); test: Histone H3 S10 phosphorylation induced by PIM1 in HEK293T cells (immunoblot); design: expressed in transfected cells; host or cells: HEK293T; settings: 50 μM, 12 h
T2 sequence (P11309 whole entry): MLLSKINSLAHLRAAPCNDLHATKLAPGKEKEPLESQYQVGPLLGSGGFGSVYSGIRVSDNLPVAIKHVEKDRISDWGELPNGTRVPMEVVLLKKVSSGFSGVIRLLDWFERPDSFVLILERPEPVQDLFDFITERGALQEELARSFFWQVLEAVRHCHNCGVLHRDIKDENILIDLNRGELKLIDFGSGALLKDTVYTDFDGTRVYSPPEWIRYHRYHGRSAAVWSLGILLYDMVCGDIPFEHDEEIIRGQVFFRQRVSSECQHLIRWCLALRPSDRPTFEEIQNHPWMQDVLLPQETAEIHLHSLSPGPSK
Procedure: FLAG-PIM1 was transfected into HEK293T cells. 36 h later, cells were treated with 50 μM of kaempferol for 12 h. 48 h after cell transfection, cells were treated in whole cell lysis solution. The levels of phosphorylated (Phospho)-histone H3S10, histone H3, and PIM1 were detected directly by immunoblot.
(§4) FLAG-PIM1 was transfected and MYC-FOXP3 and FLAG-PIM1 co-transfected into HEK293T cells. After 36 h, HEK293 was used as blank control group and each group was treated with 50 μM of kaempferol for 12 h. After 48 h, cells collected and lysed by cell lysis buffer. The levels of pS422-FOXP3, FOXP3, phosphorylated-histone H3 (Ser10), histone H3, and GAPDH were detected directly by immunoblot.
as §2
HEK293T cells were co-transfected with MYC-FOXP3 and FLAG-PIM1. 36 h later, cells were treated with 50 μM of kaempferol for 12 h. Cells were collected at 48h after transfection and directly sonicated in SDS-loading buffer, and lysed by boiling.
HEK293T cells were transfected with FLAG-PIM1, and co-transfected with MYC-FOXP3 and FLAG-PIM1. 36 h later, HEK293 was used as blank control group and each group was treated with 50 μM of kaempferol for 12 h, respectively. Cells were collected alter 48 h and lysed with cell lysis buffer. The levels of pS422-FOXP3, FOXP3, histone H3 Ser10 phosphorylation, histone H3, and GAPDH were directly detected by immunoblot (results shown in FIG. 12).

PIM2 = biological target: T3, PIM2 (Homo sapiens, UniProt Q9P1W9); test: FOXP3 phosphorylation induced by PIM2 in HEK293T cells (immunoblot); settings: Myc-FOXP3 + FLAG-PIM2, 50 μM, 12 h
T3 construct: expressed in transfected cells; host or cells: HEK293T
T3 sequence (Q9P1W9 whole entry): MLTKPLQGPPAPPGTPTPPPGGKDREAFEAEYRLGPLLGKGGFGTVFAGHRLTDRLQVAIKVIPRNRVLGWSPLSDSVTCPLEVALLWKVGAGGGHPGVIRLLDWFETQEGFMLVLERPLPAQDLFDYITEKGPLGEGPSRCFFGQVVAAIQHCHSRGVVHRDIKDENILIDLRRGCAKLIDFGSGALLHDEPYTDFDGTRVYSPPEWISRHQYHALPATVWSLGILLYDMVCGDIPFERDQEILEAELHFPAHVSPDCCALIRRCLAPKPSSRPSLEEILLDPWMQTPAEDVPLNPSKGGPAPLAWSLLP
Procedure: as §1, §2, §3

PIM1 [4] = biological target: T2, PIM1; test: FOXP3 S422 phosphorylation induced by PIM1 in HEK293T cells (immunoblot); design: expressed in transfected cells; host or cells: HEK293T
Procedure: Myc-FOXP3 and FLAG-PIM1 were co-transfected into HEK293T cells. After 36 h, cells were treated, respectively, with 50 nM, 10 nM, 2 nM, 0.4 nM of PIM1 inhibitor and 50 μM, 10 μM, 2 μM, 0.4 μM, 0.08 μM of kaempferol for 12 h. Cells were collected at 48 h after cell transfection.
as §1, §4
Protein samples were subjected to SDS-PAGE, and then transferred to nitrocellulose membrane, which was then sealed in TBST containing 5% nonfat dry milk or 3% bovine serum albumin for 1 h. […]
HEK293T cells were transfected with FLAG-PIM1, and co-transfected with MYC-FOXP3 and FLAG-PIM1. […] The levels of pS422-FOXP3, FOXP3, histone H3 Ser10 phosphorylation, histone H3, and GAPDH were directly detected by immunoblot (results shown in FIG. 12).

[5] = HEK293T transfected with FLAG-PIM1

- FOXP3 phosphorylation levels induced by PIM3 (PIM3): does not affect
- PIM1 expression levels (PIM1 [3]; [5]): does not affect
- histone H3 S10 phosphorylation induced by PIM1 (PIM1 [3]; [5]): inhibits; also recorded: can inhibit
- histone H3 S10 phosphorylation in the control group (PIM1 [3]; HEK293 blank control group (no PIM1 transfection)): does not affect
- FOXP3 phosphorylation levels induced by PIM2 (PIM2): does not affect
Structure (SMILES): O=c1c(O)c(-c2ccc(O)cc2)oc2cc(O)cc(O)c12 [kaempferol]
- CLTA4+ FOXP3+ Treg cell levels [1]: significantly increase
- FOXP3 expression levels [1]: significantly increase
- FOXP3 protein degradation [2]: can inhibit
- FOXP3 S422 phosphorylation, dose response (PIM1 [4]; MYC-FOXP3 + FLAG-PIM1, 50, 10, 2, 0.4, 0.08 μM for 12 h): inhibits FOXP3 S422 phosphorylation in a dose-dependent manner
- FOXP3 S422 phosphorylation induced by PIM1 (PIM1 [4]; Myc-FOXP3 + FLAG-PIM1, 50 μM, 12 h): specifically inhibits; also recorded: can inhibit
